This is an account of results in article doi:10.1101/2022.07.05.498881v1 (biorxiv, 2022).

In general, IC50 refers to the concentration that inhibits the measured activity by half.

A value given as a limit tells only on which side of the number the result lay.

The first assay has as its target T1, SARS-CoV-2 MPro (main protease, 3CL protease, Nsp5) (Severe acute respiratory syndrome coronavirus 2, UniProt P0DTD1).
T1 construct: gene rep
The experiment in a line: fluorogenic NSP7 peptide cleavage, […] h preincubation, […] °C. In kind it is biochemical.
Conditions: not given
Consider `COC(=O)c1cc(C#N)c(=O)n(Cc2cccc(F)c2Cl)c1` [ZINC338540162], for which the half-inhibitory concentration (IC50) is 30 µM. Still for that read-out and setting: next, `C[C@H]1CN(C(=O)Nc2cncc3ccccc23)Cc2ccccc2O1` [SG-0001]: 55 µM; `N#CC(C(=O)c1ccc([N+](=O)[O-])o1)c1cccnc1` (centres unmarked) ['5103]: 20 µM. Still for that read-out and setting: the value for `Cc1noc(CCCOc2c(C)cc(Br)cc2C=O)n1` ['2961] was 100 µM. `CC1(C)CN(C(=O)Nc2cncc3ccccc23)Cc2cc(Br)ccc2O1` [Z4924562413] yielded an IC50 of 13 µM.

`CC1(Cc2ccc(F)cc2)CCCN1c1ncc(C=O)cn1` (centres unmarked) ['0892] returned an IC50 of 140 µM. Same read-out and setting: next, `O=C(Cc1cncc2ccccc12)N1CCOc2ccc(Cl)cc2C1` [Z4946671001]: 5 µM. `O=Cc1ncc(Br)cc1OCc1cccc([N+](=O)[O-])c1` ['9112]: half-maximal inhibition (IC50) required 35 µM. On the same count and under the same terms, the value for `Cc1noc(C)c1CCCNc1nc(-c2ccncc2)nc2ccccc12` [ZINC301553312] was 63 µM; that for `O=Cc1ncc(Br)cc1OCc1ccc(Cl)cc1` ['9313] was 22 µM. In the case of `O=Cc1ncc(Br)cc1OCc1ccc(Cl)c(Br)c1` ['9121], the IC50 was 6 µM. On the same count and under the same terms, next, `O=Cc1cncc(C(=O)N2CCCC2c2cccc3ccccc23)c1` (centres unmarked) ['0292]: 100 µM. Take `N#Cc1ccc(Br)c(COc2cc(Br)cnc2C=O)c1` ['6690]: the IC50 is 2 µM. Same read-out and setting: the value for `Cn1cccc1C(=O)C(=O)Nc1cnccc1Oc1ccccc1` [Z2195811405] was ~200 µM; that for `O=Cc1ncc(Br)cc1OCc1ccc2c(c1)COC2` ['3620] was 55 µM. Still for that read-out and setting: the value for `CSc1ccncc1NC(=O)C(=O)c1ccc(F)cc1` [Z1669286714] was 110 µM.

`O=Cc1ncc(Br)cc1OCc1cc(Cl)cc(Br)c1` ['6117] showed a concentration for half-maximal inhibition (IC50) of 7 µM. `COc1ccc(Br)cc1C(=O)C(=O)Nc1cncc(C)c1` [Z1355254448] displayed an IC50 of 110 µM. In turn, `CC1CCC2(NC(=O)N(c3cncc4ccccc34)C2=O)c2ccccc21` (centres unmarked) [Z4929616137] gave a 50% inhibitory concentration (IC50) of 8 µM. `O=C1NC(c2cccc3ccccc23)C(=O)N1c1cncc2ccccc12` (centres unmarked) [Z4929615577]: the IC50 amounted to 10 µM.

For `Cc1ccc(F)cc1C(=O)C(=O)Nc1cncc(Br)c1C` [Z5420225795], the IC50 came to 40 µM. The same measure, in the same setting: the value for `O=Cc1ccc(Br)cc1OCc1ccc(Cl)c([N+](=O)[O-])c1` ['4218] was > 200 µM; that for `COc1cc(C=O)c(OS(=O)(=O)CC2CCCCC2)cc1OC` [ZINC271072260] was 143 µM. As to `O=Cc1ncc(Br)cc1OCc1ccc2ccccc2c1` ['7356], the IC50 turned out to be 26 µM.

In turn, `O=Cc1cnc(N2CC(c3nc4ccccc4[nH]3)C2)nc1` ['5156] returned an IC50 of 80 µM. On the same count and under the same terms, the value for `O=C1CN(Cc2ccc(F)cc2)C(=O)N1c1cncc2ccccc12` ['5548] was 30 µM. The same measure, in the same setting: the value for `O=Cc1ncc(Br)cc1OCc1cccc([N+](=O)[O-])c1Cl` ['9220] was 33 µM; that for `O=C1N[C@@]2(CCc3ccccc32)C(=O)N1c1cncc2ccccc12` ['6111] was 25 µM; that for `O=Cc1ncc(Br)cc1OCc1ccc(Cl)c([N+](=O)[O-])c1` ['7021] was 1 µM. `N#CC(C(=O)c1cccnc1)c1cc(F)cc(F)c1` (centres unmarked) ['0431] came in with an IC50 of 50 µM. The same measure, in the same setting: next, `CC1CN(C(=O)CCn2cc(Br)ccc2=O)Cc2ccccc2O1` (centres unmarked) [ZINC553840273]: 88 µM; `O=C1CCN(Cc2cccs2)C(=O)N1Cc1ccc[nH]c1=O` [Z3535317212]: 29 µM.

In the case of `O=Cc1ncc(Br)cc1OCc1cc(Br)ccc1Cl` ['8252], the concentration for half-maximal inhibition (IC50) is 6 µM. On to `O=C(Cc1cccnc1)N(Cc1ccccn1)c1ccc(Cl)cc1` [ZINC346371112], for which the half-maximal inhibitory concentration (IC50) worked out at 98 µM.

Consider `Cc1ccc(COc2cc(Br)cnc2C=O)cc1[N+](=O)[O-]` ['9218], for which the IC50 came out at 12 µM. Take `Cc1c(C(=O)C(C#N)C(=O)Nc2ccccc2)nnn1-c1ccccc1` (centres unmarked) ['6792]: the IC50 stood at 100 µM.

`Cc1cc(C(=O)C(=O)Nc2cnccc2F)ccc1F` [ZINC5420738300] showed a concentration for half-maximal inhibition (IC50) of 160 µM.

Still in this assay, the particulars now being: pH 7.4, 0.05% Tween-20, 1 mM DTT, substrate 12.7 μM (Km); DMSO stock; possibly covalent warhead; read-out: IC50[DMSO].
As for ZINC795258204, the IC50 turned out to be 177 µM.
